Assay [1] deals with T1, Carbonic anhydrase 2, isoform A (Drosophila melanogaster, UniProt Q9VTU8).
T1 sequence (Q9VTU8 whole entry): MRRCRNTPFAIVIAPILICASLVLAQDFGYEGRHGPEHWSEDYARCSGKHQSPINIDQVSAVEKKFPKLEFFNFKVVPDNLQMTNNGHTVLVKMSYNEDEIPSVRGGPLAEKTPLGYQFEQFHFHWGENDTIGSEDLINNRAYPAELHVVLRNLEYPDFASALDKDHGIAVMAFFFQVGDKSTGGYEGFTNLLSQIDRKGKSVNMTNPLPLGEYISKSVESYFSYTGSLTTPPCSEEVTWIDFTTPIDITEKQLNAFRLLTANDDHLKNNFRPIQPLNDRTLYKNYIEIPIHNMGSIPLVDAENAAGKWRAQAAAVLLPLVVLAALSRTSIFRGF
Nature of the assay: Inhibition of Drosophila melanogaster recombinant carbonic anhydrase-2 expressed in Escherichia coli BL21 (DE3) preincubated for 15 mins by CO2 hydration stopped-flow assay.

Assay [2] addresses T2, Carbonic anhydrase 1 (Drosophila melanogaster, UniProt Q9V396).
T2 sequence (Q9V396 whole entry): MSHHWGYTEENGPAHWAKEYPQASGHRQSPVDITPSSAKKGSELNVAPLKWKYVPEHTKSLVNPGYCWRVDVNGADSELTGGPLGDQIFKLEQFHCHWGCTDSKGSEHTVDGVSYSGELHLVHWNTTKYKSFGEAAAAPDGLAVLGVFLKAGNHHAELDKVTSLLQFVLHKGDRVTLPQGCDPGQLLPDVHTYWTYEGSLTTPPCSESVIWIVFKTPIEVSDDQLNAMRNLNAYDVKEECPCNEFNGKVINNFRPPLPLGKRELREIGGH
The assay is described as follows: Inhibition of Drosophila melanogaster recombinant carbonic anhydrase-1 expressed in Escherichia coli BL21 (DE3) preincubated for 15 mins by CO2 hydration stopped-flow assay.

Assay [3] is described as follows: Inhibition of Drosophila melanogaster recombinant beat carbonic anhydrase expressed in Escherichia coli BL21 (DE3) preincubated for 15 mins by CO2 hydration stopped-flow assay.

This passage reports Ki results from ChEMBL document CHEMBL2331089, “Characterization, bioinformatic analysis and dithiocarbamate inhibition studies of two new α-carbonic anhydrases, CAH1 and CAH2, from the fruit fly Drosophila melanogaster” (Bioorg Med Chem, 2013).

Counter-ions that a name gives are not always drawn.

Consider `S=C(S)NCc1ccccc1` [SODIUM BENZYLCARBAMODITHIOATE], for which the results for the Ki in assay [1] and in assay [2] were 213 nM and 0.8 nM, respectively.
For `S=C(S)NCCN1CCCCC1` the same measures were 26.7 nM and 57.1 nM.
For `S=C(S)N1CCCC1` the same measures were 4.7 nM and 135 nM.
For `NCCCn1ccnc1.S=C(S)NCCCn1ccnc1` the same measures were 24.1 nM and 0.9 nM.
As to `CCCCN(CCCC)C(=S)S` [DIBUTYLCARBAMODITHIOATE SODIUM SALT], the Ki stood at 0.5 nM in assay [1] and 17.1 nM in assay [2].
For `S=C(S)N1CCOCC1` [MORPHOLINECARBAMODITHIOATE SODIUM SALT] the same measures were 0.8 nM and 13.8 nM.
For `S=C(S)NN1CCOCC1` [POTASSIUM MORPHOLINOCARBAMODITHIOATE] the same measures were 20.7 nM and 13.1 nM.
For `S=C(S)Nc1cccs1` the same measures were 3.9 nM and 0.5 nM.
As for `O=C(O)CNC(=S)S`, the Ki in assay [1] worked out at 76.5 nM; in assay [2], 123 nM.
For `S=C(S)NCc1ccncc1` the same measures were 58.8 nM and 35.1 nM.
For `CN(C(=S)S)c1ccccc1` [SODIUM METHYL(PHENYL)CARBAMODITHIOATE] the same measures were 5.9 nM and 67.1 nM.
For `O=C(O)[C@@H]1CCCN1C(=S)S` the same measures were 13.6 nM and 1.4 nM.
`CN1CCN(NC(=S)S)CC1`: the inhibitory constant (Ki) in assay [1] was found to be 13.8 nM; in assay [2], 0.9 nM.
For `S=C(S)NCCN1CCOCC1` the same measures were 10.4 nM and 12.1 nM.
For `S=C(S)N1CCN(C(=S)S)CC1` [PIPERAZINECARBAMODITHIOATE DISODIUM SALT] the same measures were 21.6 nM and 0.9 nM.
`CC(=O)Nc1nnc(S(N)(=O)=O)s1` [ACETAZOLAMIDE]: the Ki in assay [3] was determined as 49 nM.
As to `S=C(S)Nc1ccccc1` [TRIETHYLAMMONIUM PHENYLCARBAMODITHIOATE], the Ki in assay [1] turned out to be 33.9 nM; in assay [2], 21.4 nM.
For `CCC(C)NC(=S)S` (racemic) the same measures were 0.9 nM and 325 nM.
For `CC(C)CN(CC(C)C)C(=S)S` [DIISOBUTYLCARBODITHIOIC ACID SODIUM SALT] the same measures were 0.9 nM and 20.2 nM.
For `OCCN(CCO)C(=S)S` the same measures were 134 nM and 3.2 nM.
For `CCCCCCN(CCCCCC)C(=S)S` [DIHEXYLCARBAMODITHIOATE SODIUM SALT], the Ki was 3.8 nM in assay [1] and 1.4 nM in assay [2].
For `CCCCN(CC)C(=S)S` [ETHYLBUTYLCARBAMODITHIOATE SODIUM SALT] the same measures were 21.9 nM and 10.5 nM.
Take `S=C(S)NCCN(CCNC(=S)S)CNC(=S)S`: the Ki in assay [1] amounted to 1.5 nM; in assay [2], 134 nM.
As for `CCCN(CCC)C(=S)S` [DIPROPYLCARBAMODITHIOATE SODIUM SALT], the Ki in assay [1] was found to be 3.9 nM; in assay [2], 23.4 nM.
For `CCN(CC)C(=S)S` [DITIOCARB SODIUM] the same measures were 654 nM and 2350 nM.
For `CN(Cc1ccccc1)C(=S)S` [SODIUM BENZYL(METHYL)CARBAMODITHIOATE] the same measures were 12.4 nM and 50.2 nM.
For `CN(C)C(=S)S` [SODIUM DIMETHYLCARBAMODITHIOATE] the same measures were 769 nM and 3460 nM.
